Converted amounts (≈) assume the structure as drawn. No end group written: not given here.
Key:
[1] = test system: Candida albicans ATCC 10231; experiment: Antimicrobial assay I, modified protocol (tryptic soy broth), MFC; conditions: minimum fungicidal concentration, Table 4
[2] = test system: Stapholococcus aureus ATCC 25923; experiment: Antimicrobial assay I, modified protocol (tryptic soy broth), MBC; conditions: minimum bactericidal concentration, Table 4
Procedure: (§1) The preparation of all media, stock solutions, and dilutions took place in a laminar flow hood to prevent contamination. Bacterial cells were freshly grown on antibiotic medium 2 agar slants (pH 7.0 at 25° C.). Bacteria were suspended and diluted in antibiotic medium 3 to about 10^4 cfu/ml and used as the inoculum. Sample solutions (100 μl/well) were added to plates according to the plate layout. Inoculum (100 μl/well) was added to achieve a final concentration of 5×10^3 cfu/ml. Negative controls received 100 μl saline and 100 μl growth medium. Positive controls received 100 μl saline and 100 μl inoculum. Bacterial plates were incubated at 37° C. for 24 hours.
(§2) However, the data for Table 4 were obtained with a modified protocol wherein the medium was tryptic soy broth, inocolum strength was approximately 10^4 CFU per ml, and values determined were minimum bactericidal concentrations (MBC) or minimum fungicidal concentrations (MFC).
(§3) MBC or MFC values are in μg/mL. E. coli is Escherichia coli ATCC accession number 25922; P. aerug is Pseudomonas aeruginosa ATCC accession number 27853, S. aur. is Stapholococcus aureus ATCC accession number 25923; Candida is Candida albicans ATCC accession number 10231.

[3] = test system: Pseudomonas aeruginosa ATCC 27853; experiment: as above; conditions: minimum bactericidal concentration, Table 4
[4] = test system: Escherichia coli ATCC 25922; experiment: as above; conditions: minimum bactericidal concentration, Table 4
Procedure: as §1, §2, §3

Compound	MFC Candida A.10231 [1]	MBC S. aur A.25923 [2]	MBC P. aerug A.27853 [3]	MBC E. coli A.25922 [4]
CC(C)C[C@H](NC(=O)[C@H](CCCCN)NC(=O)[C@H](C)NC(=O)[C@H](CC(C)C)NC(=O)[C@H](CC(C)C)NC(=O)[C@H](CCCCN)NC(=O)[C@H](C)NC(=O)[C@@H](N)Cc1ccccc1)C(=O)N[C@@H](C)C(=O)N[C@@H](CCCCN)C(=O)N[C@@H](CCCCN)C(N)=O [compound 151]	100 µg/mL (≈ 81.3 µM)	>250 µg/mL	>250 µg/mL	>250 µg/mL
CC[C@H](C)[C@H](NC(=O)[C@H](C)NC(=O)[C@H](CCCNC(=N)N)NC(=O)[C@H](CC(C)C)NC(=O)CNC(=O)[C@@H](NC(=O)[C@H](C)NC(=O)[C@@H](N)Cc1ccccc1)C(C)C)C(=O)N[C@@H](CCCCN)C(=O)N[C@@H](CCCNC(=N)N)C(=O)N[C@@H](C)C(=O)N[C@@H](CC(C)C)C(=O)N[C@@H](CCCCN)C(=O)N[C@@H](CCCCN)C(=O)N[C@@H](CC(C)C)C(=O)N[C@@H](CCCNC(=N)N)C(=O)N[C@@H](CCCNC(=N)N)C(=O)NCC(=O)N[C@H](C(=O)N[C@@H](CCCNC(=N)N)C(=O)N[C@@H](CCCCN)C(=O)N[C@H](C(=O)N[C@@H](C)C(=O)N[C@@H](CCCCN)C(=O)N[C@@H](CC(=O)O)C(=O)N[C@@H](CC(C)C)C(N)=O)C(C)C)C(C)C [compound 157]	>250 µg/mL	>250 µg/mL	>250 µg/mL	75 µg/mL (≈ 25.3 µM)
FAKLLAKLAKKIL-NH2 [compound 125]	40 µg/mL	INACT	40 µg/mL	40 µg/mL
CC(C)C[C@H](NC(=O)[C@H](C)NC(=O)[C@H](CCCCN)NC(=O)[C@H](CCCCN)NC(=O)[C@H](C)NC(=O)[C@H](CC(C)C)NC(=O)[C@H](CCCCN)NC(=O)[C@H](C)NC(=O)[C@H](CC(C)C)NC(=O)[C@H](CC(C)C)NC(=O)[C@H](CCCCN)NC(=O)[C@H](C)NC(=O)[C@@H](N)Cc1ccccc1)C(N)=O [compound 54]	30 µg/mL (≈ 21.2 µM)	15 µg/mL (≈ 10.6 µM)	40 µg/mL (≈ 28.3 µM)	15 µg/mL (≈ 10.6 µM)
CC(C)C[C@H](NC(=O)[C@H](CCCCN)NC(=O)[C@H](CC(C)C)NC(=O)[C@H](Cc1c[nH]c2ccccc12)NC(=O)[C@H](CCCCN)NC(=O)[C@H](CCCCN)NC(=O)[C@H](C)NC(=O)[C@H](Cc1c[nH]c2ccccc12)NC(=O)[C@H](CCCCN)NC(=O)[C@H](CCCCN)NC(=O)[C@H](Cc1c[nH]c2ccccc12)NC(=O)[C@H](CC(C)C)NC(=O)[C@@H](N)CCCCN)C(=O)N[C@@H](Cc1c[nH]c2ccccc12)C(=O)N[C@@H](CCCCN)C(=O)N[C@@H](C)C(=O)N[C@@H](Cc1c[nH]c2ccccc12)C(N)=O [compound 163]	25 µg/mL (≈ 10.7 µM)	25 µg/mL (≈ 10.7 µM)	50 µg/mL (≈ 21.5 µM)	25 µg/mL (≈ 10.7 µM)
KAKLF-NH2 [compound 130]	INACT	INACT	INACT	INACT
CC(C)C[C@H](NC(=O)[C@H](C)NC(=O)[C@@H](N)Cc1ccccc1)C(=O)N[C@@H](C)C(=O)N[C@@H](CC(C)C)C(=O)N[C@@H](CCCCN)C(=O)N[C@@H](C)C(=O)N[C@@H](CC(C)C)C(=O)N[C@@H](CCCCN)C(=O)N[C@@H](CCCCN)C(N)=O [compound 169]	75 µg/mL (≈ 68.1 µM)	>250 µg/mL	>250 µg/mL	200 µg/mL (≈ 182 µM)
FAKLWAKLAKKL-NH2 [compound 136]	INACT	INACT	INACT	INACT
CC(C)C[C@H](NC(=O)[C@H](CCCCN)NC(=O)[C@H](CCCCN)NC(=O)[C@H](Cc1c[nH]c2ccccc12)NC(=O)[C@@H](N)CCCCN)C(=O)N[C@@H](C)C(=O)N[C@@H](CCCCN)C(=O)N[C@@H](CCCCN)C(=O)N[C@@H](Cc1c[nH]c2ccccc12)C(N)=O [compound 161]	25 µg/mL (≈ 20.6 µM)	>250 µg/mL	>250 µg/mL	150 µg/mL (≈ 124 µM)
FAKLWAKLAFGKGIGKVGKKLL-NH2 [compound 135]	25 µg/mL	INACT	40 µg/mL	INACT
CC(C)C[C@H](NC(=O)[C@H](CC(C)C)NC(=O)[C@H](CCCCN)NC(=O)[C@H](CCCCN)NC(=O)[C@H](C)NC(=O)[C@H](CC(C)C)NC(=O)[C@H](CC(C)C)NC(=O)[C@H](CCCCN)NC(=O)[C@H](C)NC(=O)[C@@H](N)Cc1ccccc1)C(N)=O [compound 57]	>50 µg/mL	>50 µg/mL	>50 µg/mL	>50 µg/mL
FAKLLAKLAKKFAL-NH2 [compound 120]	INACT	INACT	INACT	INACT
CC(C)C[C@H](NC(=O)[C@H](CCCCN)NC(=O)[C@H](C)NC(=O)[C@H](CC(C)C)NC(=O)[C@H](CC(C)C)NC(=O)[C@H](CCCCN)NC(=O)[C@H](C)NC(=O)[C@@H](N)Cc1ccccc1)C(=O)N[C@@H](C)C(=O)N[C@@H](CCCCN)C(=O)N[C@@H](C)C(=O)N[C@@H](CCCCN)C(=O)NCC(N)=O [compound 96]	>50 µg/mL	>50 µg/mL	>50 µg/mL	>50 µg/mL
CC(C)C[C@H](NC(=O)[C@H](CCCCN)NC(=O)[C@H](CC(C)C)NC(=O)[C@H](C)NC(=O)[C@H](CCCCN)NC(=O)[C@H](C)NC(=O)[C@H](CC(C)C)NC(=O)[C@H](CC(C)C)NC(=O)[C@H](CCCCN)NC(=O)[C@H](CCCCN)NC(=O)[C@H](C)NC(=O)[C@@H](N)Cc1ccccc1)C(N)=O [compound 110]	>50 µg/mL	>50 µg/mL	>50 µg/mL	8 µg/mL (≈ 5.96 µM)
CC(C)C[C@H](NC(=O)[C@H](C)NC(=O)[C@H](CC(C)C)NC(=O)[C@H](CCCCN)NC(=O)[C@H](C)NC(=O)[C@H](CC(C)C)NC(=O)[C@H](CCCCN)NC(=O)[C@H](CCCCN)NC(=O)[C@H](C)NC(=O)[C@H](CC(C)C)NC(=O)[C@H](CCCCN)NC(=O)[C@H](CCCCN)NC(=O)[C@H](C)NC(=O)[C@@H](N)Cc1ccccc1)C(N)=O [compound 45]	>50 µg/mL	80 µg/mL (≈ 51.9 µM)	40 µg/mL (≈ 25.9 µM)	30 µg/mL (≈ 19.5 µM)
FAKLLAKLAKKSL-NH2 [compound 127]	INACT	INACT	INACT	INACT
CC(C)C[C@H](NC(=O)[C@H](CCCCN)NC(=O)[C@H](CCCCN)NC(=O)[C@H](C)NC(=O)[C@H](CC(C)C)NC(=O)[C@H](CCCCN)NC(=O)[C@H](C)NC(=O)[C@H](CC(C)C)NC(=O)[C@H](CC(C)C)NC(=O)[C@H](CCCCN)NC(=O)[C@H](C)NC(=O)[C@@H](N)Cc1ccccc1)C(N)=O [compound 49]	30 µg/mL (≈ 22.3 µM)	50 µg/mL (≈ 37.2 µM)	30 µg/mL (≈ 22.3 µM)	40 µg/mL (≈ 29.8 µM)
FAKLFAKAFKKAL-NH2 [compound 117]	INACT	INACT	INACT	INACT
CC(C)C[C@H](NC(=O)[C@H](CCCCN)NC(=O)[C@H](CC(C)C)NC(=O)[C@H](CCCCN)NC(=O)[C@H](CC(C)C)NC(=O)[C@H](C)NC(=O)[C@H](CCCCN)NC(=O)[C@H](C)NC(=O)[C@H](CC(C)C)NC(=O)[C@H](CC(C)C)NC(=O)[C@H](CCCCN)NC(=O)[C@H](C)NC(=O)[C@@H](N)Cc1ccccc1)C(N)=O [compound 101]	40 µg/mL (≈ 27.5 µM)	>50 µg/mL	>50 µg/mL	300 µg/mL (≈ 206 µM)
CC(C)C[C@H](NC(=O)[C@H](CC(C)C)NC(=O)[C@H](C)NC(=O)[C@H](CCCCN)NC(=O)[C@H](C)NC(=O)[C@H](CC(C)C)NC(=O)[C@H](CCCCN)NC(=O)[C@H](CCCCN)NC(=O)[C@H](C)NC(=O)[C@@H](N)Cc1ccccc1)C(N)=O [compound 58]	>50 µg/mL	>50 µg/mL	>50 µg/mL	>50 µg/mL
